Reference: ChEMBL document CHEMBL5724914, “Linking interpersonal differences in gut microbiota composition and drug biotransformation activity” (2024)

Settings: human gut metagenome, 24 h, 2 µM
Note: call rule not given here.

| Bacterial Biotransformation | Structure (SMILES) |
| --- | --- |
| Compound NOT metabolized | C#C[C@]1(OC(C)=O)CC[C@H]2[C@@H]3CCC4=C[C@@H](OC(C)=O)CC[C@@H]4[C@H]3CC[C@@]21C [ETHYNODIOL DIACETATE] |
| Compound NOT metabolized | C[C@]12C=CC(=O)C=C1CC[C@@H]1[C@@H]2C(=O)C[C@@]2(C)[C@H]1CC[C@]2(O)C(=O)CO [PREDNISONE] |
| Compound metabolized | CCS(=O)(=O)CCn1c([N+](=O)[O-])cnc1C [TINIDAZOLE] |

Experiment: (§1) The drug is tested on WLS-069 corresponding to human gut metagenome with ENA study accession number: PRJEB37062 and ENA sample accession number: ERS12561748 for biotransformation under anaerobic condition. The drug concentrations were measured over 9 timepoints collected between 0 and 24 hours of incubation by liquid-chromatography-coupled mass spectrometry (LC–MS)
Settings: 2 µM

| Bacterial Biotransformation | Structure (SMILES) |
| --- | --- |
| Compound metabolized | C#C[C@]1(OC(C)=O)CC[C@H]2[C@@H]3CCC4=C[C@@H](OC(C)=O)CC[C@@H]4[C@H]3CC[C@@]21C [ETHYNODIOL DIACETATE] |
| Compound metabolized | C[C@]12C=CC(=O)C=C1CC[C@@H]1[C@@H]2C(=O)C[C@@]2(C)[C@H]1CC[C@]2(O)C(=O)CO [PREDNISONE] |
| Compound metabolized | CCS(=O)(=O)CCn1c([N+](=O)[O-])cnc1C [TINIDAZOLE] |

Settings: human gut metagenome, 24 h, 2 µM
Remark: another data set of the same source

| Bacterial Biotransformation | Structure (SMILES) |
| --- | --- |
| Compound metabolized | C#C[C@]1(OC(C)=O)CC[C@H]2[C@@H]3CCC4=C[C@@H](OC(C)=O)CC[C@@H]4[C@H]3CC[C@@]21C [ETHYNODIOL DIACETATE] |
| Compound metabolized | C[C@]12C=CC(=O)C=C1CC[C@@H]1[C@@H]2C(=O)C[C@@]2(C)[C@H]1CC[C@]2(O)C(=O)CO [PREDNISONE] |
| Compound metabolized | CCS(=O)(=O)CCn1c([N+](=O)[O-])cnc1C [TINIDAZOLE] |

Settings: human gut metagenome, 24 h, 2 µM
Remark: another data set of the same source

| Bacterial Biotransformation | Structure (SMILES) |
| --- | --- |
| Compound metabolized | C#C[C@]1(OC(C)=O)CC[C@H]2[C@@H]3CCC4=C[C@@H](OC(C)=O)CC[C@@H]4[C@H]3CC[C@@]21C [ETHYNODIOL DIACETATE] |
| Compound metabolized | C[C@]12C=CC(=O)C=C1CC[C@@H]1[C@@H]2C(=O)C[C@@]2(C)[C@H]1CC[C@]2(O)C(=O)CO [PREDNISONE] |
| Compound metabolized | CCS(=O)(=O)CCn1c([N+](=O)[O-])cnc1C [TINIDAZOLE] |

Settings: human gut metagenome, 24 h, 2 µM
Remark: another data set of the same source

| Bacterial Biotransformation | Structure (SMILES) |
| --- | --- |
| Compound metabolized | C#C[C@]1(OC(C)=O)CC[C@H]2[C@@H]3CCC4=C[C@@H](OC(C)=O)CC[C@@H]4[C@H]3CC[C@@]21C [ETHYNODIOL DIACETATE] |
| Compound metabolized | C[C@]12C=CC(=O)C=C1CC[C@@H]1[C@@H]2C(=O)C[C@@]2(C)[C@H]1CC[C@]2(O)C(=O)CO [PREDNISONE] |
| Compound metabolized | CCS(=O)(=O)CCn1c([N+](=O)[O-])cnc1C [TINIDAZOLE] |

Experiment: as §1, with “Z-025” for “WLS-069”, “rabbit” for “human”, “ERS12561824” for “ERS12561748”
Settings: 2 µM

| Bacterial Biotransformation | Structure (SMILES) |
| --- | --- |
| Compound metabolized | C#C[C@]1(OC(C)=O)CC[C@H]2[C@@H]3CCC4=C[C@@H](OC(C)=O)CC[C@@H]4[C@H]3CC[C@@]21C [ETHYNODIOL DIACETATE] |
| Compound NOT metabolized | C[C@]12C=CC(=O)C=C1CC[C@@H]1[C@@H]2C(=O)C[C@@]2(C)[C@H]1CC[C@]2(O)C(=O)CO [PREDNISONE] |
| Compound metabolized | CCS(=O)(=O)CCn1c([N+](=O)[O-])cnc1C [TINIDAZOLE] |

Settings: human gut metagenome, 24 h, 2 µM
Remark: another data set of the same source

| Bacterial Biotransformation | Structure (SMILES) |
| --- | --- |
| Compound NOT metabolized | C[C@]12C=CC(=O)C=C1CC[C@@H]1[C@@H]2C(=O)C[C@@]2(C)[C@H]1CC[C@]2(O)C(=O)CO [PREDNISONE] |
| Compound metabolized | CCS(=O)(=O)CCn1c([N+](=O)[O-])cnc1C [TINIDAZOLE] |

Settings: human gut metagenome, 24 h, 2 µM
Remark: another data set of the same source

| Bacterial Biotransformation | Structure (SMILES) |
| --- | --- |
| Compound metabolized | C#C[C@]1(OC(C)=O)CC[C@H]2[C@@H]3CCC4=C[C@@H](OC(C)=O)CC[C@@H]4[C@H]3CC[C@@]21C [ETHYNODIOL DIACETATE] |
| Compound metabolized | C[C@]12C=CC(=O)C=C1CC[C@@H]1[C@@H]2C(=O)C[C@@]2(C)[C@H]1CC[C@]2(O)C(=O)CO [PREDNISONE] |
| Compound metabolized | CCS(=O)(=O)CCn1c([N+](=O)[O-])cnc1C [TINIDAZOLE] |

Experiment: as §1, with “Z-030” for “WLS-069”, “mouse” for “human”, “ERS12561829” for “ERS12561748”
Settings: 2 µM

| Bacterial Biotransformation | Structure (SMILES) |
| --- | --- |
| Compound metabolized | C#C[C@]1(OC(C)=O)CC[C@H]2[C@@H]3CCC4=C[C@@H](OC(C)=O)CC[C@@H]4[C@H]3CC[C@@]21C [ETHYNODIOL DIACETATE] |
| Compound NOT metabolized | C[C@]12C=CC(=O)C=C1CC[C@@H]1[C@@H]2C(=O)C[C@@]2(C)[C@H]1CC[C@]2(O)C(=O)CO [PREDNISONE] |
| Compound metabolized | CCS(=O)(=O)CCn1c([N+](=O)[O-])cnc1C [TINIDAZOLE] |

Experiment: as §1, with “WLS-039” for “WLS-069”, “ERS12561746” for “ERS12561748”
Settings: 2 µM

| Bacterial Biotransformation | Structure (SMILES) |
| --- | --- |
| Compound metabolized | C#C[C@]1(OC(C)=O)CC[C@H]2[C@@H]3CCC4=C[C@@H](OC(C)=O)CC[C@@H]4[C@H]3CC[C@@]21C [ETHYNODIOL DIACETATE] |
| Compound metabolized | C[C@]12C=CC(=O)C=C1CC[C@@H]1[C@@H]2C(=O)C[C@@]2(C)[C@H]1CC[C@]2(O)C(=O)CO [PREDNISONE] |
| Compound metabolized | CCS(=O)(=O)CCn1c([N+](=O)[O-])cnc1C [TINIDAZOLE] |

Settings: human gut metagenome, 24 h, 2 µM
Remark: another data set of the same source

| Bacterial Biotransformation | Structure (SMILES) |
| --- | --- |
| Compound metabolized | C#C[C@]1(OC(C)=O)CC[C@H]2[C@@H]3CCC4=C[C@@H](OC(C)=O)CC[C@@H]4[C@H]3CC[C@@]21C [ETHYNODIOL DIACETATE] |
| Compound metabolized | CCS(=O)(=O)CCn1c([N+](=O)[O-])cnc1C [TINIDAZOLE] |

Experiment: as §1, with “WLS-038” for “WLS-069”, “ERS12561745” for “ERS12561748”
Settings: 2 µM

| Bacterial Biotransformation | Structure (SMILES) |
| --- | --- |
| Compound metabolized | C#C[C@]1(OC(C)=O)CC[C@H]2[C@@H]3CCC4=C[C@@H](OC(C)=O)CC[C@@H]4[C@H]3CC[C@@]21C [ETHYNODIOL DIACETATE] |
| Compound metabolized | C[C@]12C=CC(=O)C=C1CC[C@@H]1[C@@H]2C(=O)C[C@@]2(C)[C@H]1CC[C@]2(O)C(=O)CO [PREDNISONE] |
| Compound metabolized | CCS(=O)(=O)CCn1c([N+](=O)[O-])cnc1C [TINIDAZOLE] |

Settings: human gut metagenome, 24 h, 2 µM
Remark: another data set of the same source

| Bacterial Biotransformation | Structure (SMILES) |
| --- | --- |
| Compound metabolized | C#C[C@]1(OC(C)=O)CC[C@H]2[C@@H]3CCC4=C[C@@H](OC(C)=O)CC[C@@H]4[C@H]3CC[C@@]21C [ETHYNODIOL DIACETATE] |
| Compound metabolized | C[C@]12C=CC(=O)C=C1CC[C@@H]1[C@@H]2C(=O)C[C@@]2(C)[C@H]1CC[C@]2(O)C(=O)CO [PREDNISONE] |

Settings: human gut metagenome, 24 h, 2 µM
Remark: another data set of the same source

| Bacterial Biotransformation | Structure (SMILES) |
| --- | --- |
| Compound metabolized | C#C[C@]1(OC(C)=O)CC[C@H]2[C@@H]3CCC4=C[C@@H](OC(C)=O)CC[C@@H]4[C@H]3CC[C@@]21C [ETHYNODIOL DIACETATE] |
| Compound metabolized | C[C@]12C=CC(=O)C=C1CC[C@@H]1[C@@H]2C(=O)C[C@@]2(C)[C@H]1CC[C@]2(O)C(=O)CO [PREDNISONE] |
| Compound metabolized | CCS(=O)(=O)CCn1c([N+](=O)[O-])cnc1C [TINIDAZOLE] |

Settings: human gut metagenome, 24 h, 2 µM
Remark: another data set of the same source

| Bacterial Biotransformation | Structure (SMILES) |
| --- | --- |
| Compound metabolized | C#C[C@]1(OC(C)=O)CC[C@H]2[C@@H]3CCC4=C[C@@H](OC(C)=O)CC[C@@H]4[C@H]3CC[C@@]21C [ETHYNODIOL DIACETATE] |
| Compound metabolized | C[C@]12C=CC(=O)C=C1CC[C@@H]1[C@@H]2C(=O)C[C@@]2(C)[C@H]1CC[C@]2(O)C(=O)CO [PREDNISONE] |
| Compound metabolized | CCS(=O)(=O)CCn1c([N+](=O)[O-])cnc1C [TINIDAZOLE] |

Experiment: as §1, with “Z-002” for “WLS-069”, “rabbit” for “human”, “ERS12561802” for “ERS12561748”
Settings: 2 µM

| Bacterial Biotransformation | Structure (SMILES) |
| --- | --- |
| Compound metabolized | C#C[C@]1(OC(C)=O)CC[C@H]2[C@@H]3CCC4=C[C@@H](OC(C)=O)CC[C@@H]4[C@H]3CC[C@@]21C [ETHYNODIOL DIACETATE] |
| Compound metabolized | C[C@]12C=CC(=O)C=C1CC[C@@H]1[C@@H]2C(=O)C[C@@]2(C)[C@H]1CC[C@]2(O)C(=O)CO [PREDNISONE] |
| Compound metabolized | CCS(=O)(=O)CCn1c([N+](=O)[O-])cnc1C [TINIDAZOLE] |

Settings: human gut metagenome, 24 h, 2 µM
Remark: another data set of the same source

| Bacterial Biotransformation | Structure (SMILES) |
| --- | --- |
| Compound metabolized | C#C[C@]1(OC(C)=O)CC[C@H]2[C@@H]3CCC4=C[C@@H](OC(C)=O)CC[C@@H]4[C@H]3CC[C@@]21C [ETHYNODIOL DIACETATE] |
| Compound NOT metabolized | C[C@]12C=CC(=O)C=C1CC[C@@H]1[C@@H]2C(=O)C[C@@]2(C)[C@H]1CC[C@]2(O)C(=O)CO [PREDNISONE] |
| Compound metabolized | CCS(=O)(=O)CCn1c([N+](=O)[O-])cnc1C [TINIDAZOLE] |

Settings: human gut metagenome, 24 h, 2 µM
Remark: another data set of the same source

| Bacterial Biotransformation | Structure (SMILES) |
| --- | --- |
| Compound metabolized | C#C[C@]1(OC(C)=O)CC[C@H]2[C@@H]3CCC4=C[C@@H](OC(C)=O)CC[C@@H]4[C@H]3CC[C@@]21C [ETHYNODIOL DIACETATE] |
| Compound metabolized | C[C@]12C=CC(=O)C=C1CC[C@@H]1[C@@H]2C(=O)C[C@@]2(C)[C@H]1CC[C@]2(O)C(=O)CO [PREDNISONE] |
| Compound metabolized | CCS(=O)(=O)CCn1c([N+](=O)[O-])cnc1C [TINIDAZOLE] |

Experiment: as §1, with “Z-017” for “WLS-069”, “mouse” for “human”, “ERS12561816” for “ERS12561748”
Settings: 2 µM

| Bacterial Biotransformation | Structure (SMILES) |
| --- | --- |
| Compound metabolized | C#C[C@]1(OC(C)=O)CC[C@H]2[C@@H]3CCC4=C[C@@H](OC(C)=O)CC[C@@H]4[C@H]3CC[C@@]21C [ETHYNODIOL DIACETATE] |
| Compound metabolized | C[C@]12C=CC(=O)C=C1CC[C@@H]1[C@@H]2C(=O)C[C@@]2(C)[C@H]1CC[C@]2(O)C(=O)CO [PREDNISONE] |
| Compound metabolized | CCS(=O)(=O)CCn1c([N+](=O)[O-])cnc1C [TINIDAZOLE] |

Experiment: as §1, with “Z-001” for “WLS-069”, “mouse” for “human”, “ERS12561801” for “ERS12561748”
Settings: 2 µM

| Bacterial Biotransformation | Structure (SMILES) |
| --- | --- |
| Compound metabolized | C#C[C@]1(OC(C)=O)CC[C@H]2[C@@H]3CCC4=C[C@@H](OC(C)=O)CC[C@@H]4[C@H]3CC[C@@]21C [ETHYNODIOL DIACETATE] |
| Compound metabolized | C[C@]12C=CC(=O)C=C1CC[C@@H]1[C@@H]2C(=O)C[C@@]2(C)[C@H]1CC[C@]2(O)C(=O)CO [PREDNISONE] |
| Compound metabolized | CCS(=O)(=O)CCn1c([N+](=O)[O-])cnc1C [TINIDAZOLE] |
